US20150293106A1, “DIAROMATIC AMINO ACID SUBSTRATE FOR CATHEPSIN DETECTION” (INDUSTRY-ACADEMIC COOPERATION FOUNDATION, YONSEI UNIVERSITY, priority 2012, published 2015)
Read-outs that look alike come from different tables or passages of the source. Marks after values point to notes of the source that are not given here. Where no end group is shown, it is not given here. [ ]: non-standard residue; d: D form. The star is where a group is joined. Dnp = O=[N+]([O-])c1ccc(*)c([N+](=O)[O-])c1; 2Abz = Nc1ccccc1C(=O)O

Tests used:
thermolysin [1] = target: T1, thermolysin (Bacillus thermoproteolyticus, UniProt P00800); conditions: after 2 hours; protease 10 μM; substrate 0.2 mM (G1-G3, L1-L3) or 0.1 mM (G4, L4); n.d. = no hydrolysis was detected; hydrolysate INH
Procedure: (§1) For the meaningful comparison of proteases, a hydrolysis reaction was performed under the optimum conditions as reported in other documents (regarding chymotrypsin, subtilisin, thermolysin and pepsin, refer to R. Beynon, J. S. Bond, Proteolytic Enzymes (Second Edition), Oxford University Press, 2001, pp. 295-316; regarding trypsin, proteinase K, carboxy peptidase A, collagenase, dispase, aspergillopepsin, papain, chymopapain, bromelain, cathepsin B, cathepsin L, and cathepsin S, refer to the catalog of Sigma-Aldrich Corporation).
(§2) Before the reaction, the mixtures of the reaction buffer solutions and proteases were previously incubated for 30 minutes in a water bath in which the temperature was adjusted to an analysis temperature. The hydrolysis reaction was initiated by adding a substrate dissolved in DMSO. The volume of the added substrate solution was controlled such that the final concentration of DMSO was lower than 1.5% (v/v).
A hydrolysate was measured using a HPLC system. In order to prepare a sample, a hydrolysis reaction was terminated by adding 2% (v/v) 1M HCl with respect to a serine protease, cysteine protease and metalloprotease, and adding 1M NaOH with respect to an aspartic protease. The separation was performed using the mixture of 10 mM-ammonium bicarbonate and acetonitrile as an eluent in C-18 column (particle size: 5 μm, 250 mm×4.6 mm, pore size: 80 Å, Phenomenex, USA). The elution was performed for 15 minutes, while the linear gradient of acetonitrile was increased from 0 to 60%. The flow rate and separation temperature of the eluent were maintained at 1 mL min^−1 and 35° C. The hydrolysate was detected at a wavelength of 254 nm.
Based on the report that a hydrophobic amino acid such as phenylalanine was preferred at a P2 position in most of the papain-like cysteine proteases, Boc-aromatic amino acid-Gly-INH and Boc-aromatic amino acid-Lys-INH were prepared in particular, and experimented as a substrate with respect to chymotrypsin, trypsin, papain, pepsin and thermolysis.

trypsin = target: T2, trypsin (Bos taurus, UniProt P00760); test: Degree of hydrolysis by protease (Table 3); format: biochemical, bovine; conditions: after 2 hours; protease 10 μM; substrate 0.2 mM (G1-G3, L1-L3) or 0.1 mM (G4, L4); n.d. = no hydrolysis was detected; hydrolysate INH
T2 construct: chymotrypsin and trypsin derived from fetal bovine pancreas; purchased Sigma-Aldrich Chemical Co; host or cells: bovine pancreas
T2 sequence (P00760 24-246): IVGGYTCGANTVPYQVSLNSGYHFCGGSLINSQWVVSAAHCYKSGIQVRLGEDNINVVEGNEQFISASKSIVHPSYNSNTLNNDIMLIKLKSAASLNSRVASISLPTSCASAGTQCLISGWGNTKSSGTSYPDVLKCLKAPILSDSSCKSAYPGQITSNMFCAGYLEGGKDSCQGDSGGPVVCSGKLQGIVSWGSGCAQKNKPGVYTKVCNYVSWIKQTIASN
Procedure: (§3) A hydrolysate was measured using a HPLC system.

chymotrypsin = target: T3, chymotrypsin (Bos taurus, UniProt P00766); test: Degree of hydrolysis by protease (Table 3); format: biochemical, bovine; conditions: after 2 hours, protease 10 μM, substrate 0.2 mM (G1-G3, L1-L3) or 0.1 mM (G4, L4), n.d. = no hydrolysis was detected, hydrolysate Gly-INH (G), Lys-INH (L1-L3)
T3 construct: chymotrypsin and trypsin derived from fetal bovine pancreas; purchased Sigma-Aldrich Chemical Co; host or cells: bovine pancreas
Procedure: as §3

papain = target: T4, papain (Carica papaya, UniProt P00784); test: Degree of hydrolysis by protease (Table 3); format: biochemical, papaya latex; conditions: after 2 hours; protease 10 μM; substrate 0.2 mM (G1-G3, L1-L3) or 0.1 mM (G4, L4); hydrolysate INH
T4 construct: papain and chymopapain derived from papaya latex; purchased Sigma-Aldrich Chemical Co; host or cells: papaya latex
T4 sequence (P00784 134-345): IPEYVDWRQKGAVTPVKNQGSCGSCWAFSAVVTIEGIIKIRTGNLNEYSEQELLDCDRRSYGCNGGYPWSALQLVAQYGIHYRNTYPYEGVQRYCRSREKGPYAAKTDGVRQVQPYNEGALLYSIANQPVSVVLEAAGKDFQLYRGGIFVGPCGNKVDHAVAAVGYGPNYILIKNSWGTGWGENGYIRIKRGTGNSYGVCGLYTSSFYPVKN
Procedure: as §3

pepsin = target: T5, pepsin (Sus scrofa, UniProt P00791); test: Degree of hydrolysis by protease (Table 3); format: biochemical, pig; conditions: after 2 hours; protease 10 μM; substrate 0.2 mM (G1-G3, L1-L3) or 0.1 mM (G4, L4); n.d. = no hydrolysis was detected; hydrolysate INH
T5 construct: pepsin derived from pig gastric mucosa; purchased Sigma-Aldrich Chemical Co; host or cells: pig gastric mucosa
Procedure: as §3

cathepsin B [2] = target: T6, cathepsin B (Homo sapiens, UniProt P07858); conditions: reported for other substances, cited from earlier work
dispase = target: T7, dispase (Paenibacillus polymyxa, UniProt P29148); test: Protease-catalyzed hydrolysis, restored DBDY fluorescence (selectivity, FIGS. 11-19); format: biochemical, bacillus polymyxa; conditions: substrate 2.5 μM, protease 0.1 μM, two hours; hydrolysate amino acid-INH
T7 construct: dispase derived from bacillus polymyxa; purchased Sigma-Aldrich Chemical Co; host or cells: Bacillus polymyxa
Procedure: (§4) The reaction was performed under alkaline conditions.
The hydrolysis reaction was performed for two hours. […] Each experiment was repeated at least three times.

thermolysin [3] = target: T1, thermolysin; conditions: substrate 2.5 μM, protease 0.1 μM, two hours; hydrolysate amino acid-INH
Procedure: as §1, §2
The λex and λem were respectively adjusted to 284 nm and 410 nm with respect to papain, chymopapain, bromelain, cathepsins, aspergillopepsin and pepsin, and the λex and λem were respectively adjusted to 320 nm and 410 nm with respect to chymotrypsin, trypsin, subtilisin, proteinase K, thermolysin, carboxypeptidase A, collagenase and dispase. The reaction was performed under alkaline conditions.
The fluorescence measured at the end of the reaction was expressed as a final fluorescence.
The initial concentrations of each substrate and protease were respectively set to 2.5 μM and 0.1 μM. The hydrolysis reaction was performed for two hours. Reference numbers on an X-axis denoted the following: C1=papain; C2=chymopapain; C3=bromelain; S1=chymotrypsin; S2=trypsin; S3=subtilisin; S4=proteinase K; M1=thermolysin; M2=carboxypeptidase A; M3=dispase; M4=collagenase; A1=pepsin; and A2=aspergillopepsin. Each experiment was repeated at least three times.

cathepsin L = target: T8, cathepsin L (Homo sapiens, UniProt P07711); test: Selective hydrolysis by cathepsins, fluorescence (FIG. 20); format: biochemical; conditions: inventors' earlier research on DBDY-(INH)2; conditions not given
T8 construct: cathepsins B and L derived from a human liver; purchased Sigma-Aldrich Chemical Co; host or cells: human liver
Procedure: as §4
(§5) The results of experiments were illustrated in FIG. 20. Since the hydrolysis by cathepsin B was faster than the hydrolyses by papain and chymopapain, the reaction was performed with a substrate (concentration: 1.0 μM) and a protease (concentration: […]) of which the concentrations were set lower than those in Experimental Example 2 (substrate (concentration: 2.5 μM) and protease (concentration: 0.1 μM) reacted for two hours) for 30 minutes in FIG. 20. C1, C2, CB, CL, and CS represented on an X-axis respectively denote papain, chymopapain, cathepsin B, cathepsin L, and cathepsin S. Each experiment was repeated at least three times.

cathepsin B [4] = target: T6, cathepsin B; test: as above; format: biochemical; parameters: cathepsins B and L derived from a human liver; purchased Sigma-Aldrich Chemical Co; host or cells: human liver; conditions: inventors' earlier research on DBDY-(INH)2; conditions not given
Procedure: as §4, §5

T5 sequence (P00791 60-385): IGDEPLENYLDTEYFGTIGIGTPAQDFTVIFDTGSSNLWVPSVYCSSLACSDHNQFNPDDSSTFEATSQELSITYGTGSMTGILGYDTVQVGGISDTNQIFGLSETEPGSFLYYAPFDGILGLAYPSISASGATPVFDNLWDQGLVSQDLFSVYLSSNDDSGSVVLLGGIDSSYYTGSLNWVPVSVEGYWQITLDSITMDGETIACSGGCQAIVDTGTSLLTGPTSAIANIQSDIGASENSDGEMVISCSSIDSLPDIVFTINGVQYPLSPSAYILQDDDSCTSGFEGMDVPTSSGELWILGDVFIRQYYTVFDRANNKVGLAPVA
T1 sequence (P00800 233-548): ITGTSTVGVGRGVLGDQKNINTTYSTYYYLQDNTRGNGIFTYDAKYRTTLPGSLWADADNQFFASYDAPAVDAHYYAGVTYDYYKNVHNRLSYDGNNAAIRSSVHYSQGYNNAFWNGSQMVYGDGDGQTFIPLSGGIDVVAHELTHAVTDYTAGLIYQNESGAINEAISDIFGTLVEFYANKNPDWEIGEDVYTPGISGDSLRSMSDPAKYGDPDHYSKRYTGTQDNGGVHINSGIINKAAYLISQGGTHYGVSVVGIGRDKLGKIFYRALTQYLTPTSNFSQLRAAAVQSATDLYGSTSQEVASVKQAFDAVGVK
T7 sequence (P29148 287-590): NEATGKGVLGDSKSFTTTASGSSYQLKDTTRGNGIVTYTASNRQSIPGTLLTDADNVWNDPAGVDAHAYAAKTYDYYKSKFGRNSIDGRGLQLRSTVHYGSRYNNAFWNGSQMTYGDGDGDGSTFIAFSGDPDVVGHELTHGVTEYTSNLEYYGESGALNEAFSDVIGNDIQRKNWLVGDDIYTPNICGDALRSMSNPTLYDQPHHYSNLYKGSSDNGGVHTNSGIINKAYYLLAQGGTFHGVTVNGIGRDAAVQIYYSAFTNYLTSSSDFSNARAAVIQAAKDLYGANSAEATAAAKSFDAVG
T8 sequence (P07711 114-333): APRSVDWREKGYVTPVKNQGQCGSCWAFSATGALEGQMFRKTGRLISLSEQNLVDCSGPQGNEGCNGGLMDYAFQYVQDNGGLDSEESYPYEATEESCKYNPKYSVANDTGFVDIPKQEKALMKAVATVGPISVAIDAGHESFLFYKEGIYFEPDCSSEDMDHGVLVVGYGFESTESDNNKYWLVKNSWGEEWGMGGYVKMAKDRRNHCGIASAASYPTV

| Compound | degree of hydrolysis by Chymotrypsin (chymotrypsin) | degree of hydrolysis by Papain (papain) [%] | sensitivity for dispase (hydrolysis, increased fluorescence) (dispase) | sensitivity for thermolysin (hydrolysis, increased fluorescence) (thermolysin [3]) | other results |
| --- | --- | --- | --- | --- | --- |
| CC(C)(C)OC(=O)NC(Cc1c[nH]c2ccccc12)C(=O)NC(CCCCN)C(=O)NNC(=O)c1ccncc1 (stereo not drawn) [Substrate L3, Boc-Trp-Lys-INH] | 58.3 ± 1.2 ^e % | 93.1 ± 8.9 | – | – | degree of hydrolysis by Thermolysin (thermolysin [1]): 4.04 ± 0.08%; degree of hydrolysis by Trypsin (trypsin): 85.1 ± 3.7% |
| CC(C)(C)OC(=O)NC(Cc1ccccc1)C(=O)NCC(=O)NNC(=O)c1ccncc1 (stereo not drawn) [Substrate G2, Boc-Phe-Gly-INH] | 28.6 ± 3.4 ^d % | 51.0 ± 3.5 | – | – | degree of hydrolysis by Pepsin (pepsin): 1.61 ± 0.05% |
| Abz-Phe-Arg-Dap(Dnp)-Trp-OH | – | – | – | – | Km (cathepsin B [2]): 3000 nM |
| Abz-Phe-Phe-Dap(Dnp)-Trp-OH | – | – | – | – | Km (cathepsin B [2]): 2100 nM |
| CC(C)(C)OC(=O)NC(Cc1ccc(O)cc1)C(=O)NCC(=O)NNC(=O)c1ccncc1 (stereo not drawn) [Substrate G1, Boc-Tyr- Gly-INH] | 38.7 ± 2.9 ^d % | 62.8 ± 2.5 | – | – | degree of hydrolysis by Thermolysin (thermolysin [1]): 0.74 ± 0.02%; degree of hydrolysis by Pepsin (pepsin): 2.34 ± 0.45% |
| CC(C)(C)OC(=O)NC(Cc1ccccc1)C(=O)NC(CCCCN)C(=O)NNC(=O)c1ccncc1 (stereo not drawn) [Substrate L2, Boc-Phe-Lys-INH] | 53.2 ± 4.8 ^e % | 89.1 ± 2.5 | – | – | degree of hydrolysis by Trypsin (trypsin): 81.2 ± 4.9% |
| CC[C@H](C)[C@H](NC(=O)C(Cc1ccc(O)c(-c2cc(CC(NC(=O)OC(C)(C)C)C(=O)N[C@H](C(=O)NNC(=O)c3ccncc3)[C@@H](C)CC)ccc2O)c1)NC(=O)OC(C)(C)C)C(=O)NNC(=O)c1ccncc1 (stereo partly shown) [DBDY-(Ile-INH)2] | – | – | high sensitivity | high sensitivity | – |
| CC(C)C[C@H](NC(=O)C(Cc1ccc(O)c(-c2cc(CC(NC(=O)OC(C)(C)C)C(=O)N[C@@H](CC(C)C)C(=O)NNC(=O)c3ccncc3)ccc2O)c1)NC(=O)OC(C)(C)C)C(=O)NNC(=O)c1ccncc1 (stereo partly shown) [DBDY-(Leu-INH)2] | – | – | high sensitivity | high sensitivity | – |
| CC(C)(C)OC(=O)NC(Cc1ccc(O)cc1)C(=O)NC(CCCCN)C(=O)NNC(=O)c1ccncc1 (stereo not drawn) [Substrate L1, Boc-Tyr-Lys-INH] | 37.6 ± 5.2 ^e % | 77.4 ± 5.8 | – | – | degree of hydrolysis by Pepsin (pepsin): 0.74 ± 0.04%; degree of hydrolysis by Trypsin (trypsin): 69.6 ± 4.1% |
| Abz-Gly-Ile-Val-Arg-Ala-Lys(Dnp)-OH ([2Abz]GIVRAK(Dnp)-OH) | – | – | – | – | Km (cathepsin B [2]; unit inferred): 5900 nM |
| CC(C)(C)OC(=O)NC(Cc1ccc(O)c(-c2cc(CC(NC(=O)OC(C)(C)C)C(=O)NNC(=O)c3ccncc3)ccc2O)c1)C(=O)NNC(=O)c1ccncc1 (stereo not shown) [DBDY-(INH)2, reference compound] | – | – | – | – | hydrolysis by cathepsin L (cathepsin L): not hydrolyzed; hydrolysis by cathepsin B (cathepsin B [4]): not hydrolyzed |
| CSCC[C@H](NC(=O)C(Cc1ccc(O)c(-c2cc(CC(NC(=O)OC(C)(C)C)C(=O)N[C@@H](CCSC)C(=O)NNC(=O)c3ccncc3)ccc2O)c1)NC(=O)OC(C)(C)C)C(=O)NNC(=O)c1ccncc1 (stereo partly shown) [DBDY-(Met-INH)2] | – | – | high sensitivity | high sensitivity | – |
| CC(C)(C)OC(=O)NC(Cc1ccc(O)c(-c2cc(CC(NC(=O)OC(C)(C)C)C(=O)N[C@@H](Cc3ccccc3)C(=O)NNC(=O)c3ccncc3)ccc2O)c1)C(=O)N[C@@H](Cc1ccccc1)C(=O)NNC(=O)c1ccncc1 (stereo partly shown) [DBDY-(Phe-INH)2] | – | – | high sensitivity | high sensitivity | – |
| CC(C)(C)OC(=O)NC(Cc1c[nH]c2ccccc12)C(=O)NCC(=O)NNC(=O)c1ccncc1 (stereo not drawn) [Substrate G3, Boc-Trp-Gly-INH] | 17.3 ± 5.5 ^d % | 58.8 ± 6.2 | – | – | degree of hydrolysis by Thermolysin (thermolysin [1]): 0.74 ± 0.05%; degree of hydrolysis by Pepsin (pepsin): 3.21 ± 0.45% |
| CC(C)[C@H](NC(=O)C(Cc1ccc(O)c(-c2cc(CC(NC(=O)OC(C)(C)C)C(=O)N[C@H](C(=O)NNC(=O)c3ccncc3)C(C)C)ccc2O)c1)NC(=O)OC(C)(C)C)C(=O)NNC(=O)c1ccncc1 (stereo partly shown) [DBDY-(Val-INH)2] | – | – | high sensitivity | high sensitivity | – |
